# Laboratory results as given in US20210392882A1, “METHODS AND COMPOSITIONS FOR IMPROVED INSECT REPELLENCY” (Board of Trustees of Michigan State University, priority 2020, published 2021).
# Legend:
# [1] = tested on: sbt-1 sensilla (sbt-1A and sbt-1B neurons); experiment: Single sensillum recording (SSR) of antennal sbt-1 sensilla; format: cell-based, Aedes aegypti; details: for response of sbt-1B neurons in AaOr31−/− mosquitoes: AaOr31 knockout, specificity control; for response of sbt-1B neuron / response of sbt-1A neuron: wild-type ROCK; for response of sbt-1B neuron: pyrethrum at 10^−2; for response of sbt-1A neurons in AaOr31−/− mosquitoes: AaOr31 knockout vs ROCK, 10^−2 dilution, FIG. 3A; for response of sbt-1A neuron: pyrethrum and EBF at 10^−2 dilution
# Protocol: (§1) Single sensilla recording was conducted as described in Liu et al. J Insect Physiol 59, 1169-1177 (2013). Female mosquitoes 4 days after eclosion were anaesthetized (2-3 min on ice) and mounted on a microscope slide (76×26 mm). An antenna was fixed using a double-sided tape to a cover slip resting on a small ball of dental wax to facilitate manipulation. The cover slip was placed at an appropriate angle to the mosquito head. Once mounted, the specimen was placed under a microscope (Nikon SMA645, Japan) and the antenna viewed at a high magnification (1000×). Two tungsten microelectrodes were sharpened in 10% KNO2 at 2-10 V. The reference electrode, which was connected to ground, was inserted into the compound eye of the mosquito and the other was connected to the preamplifier (10×, Syntech, Kirchzarten, Germany) and inserted into the shaft of an olfactory sensillum to complete the electrical circuit to extracellularly record olfactory receptor neuron potentials (Den Otter et al., Journal of Insect Physiology 26, 465-472 (1980)). Controlled manipulation of the electrodes was performed using a micromanipulator (Burleigh PCS-6000, CA). The preamplifier was connected to an analog-to-digital signal converter (IDAC-4, Syntech, Germany), which in turn was connected to a computer for signal recording and visualization. The activity of co-located olfactory receptor neurons in each sensillum was assessed based on the differences in spike amplitude. The large spike amplitude was designated as cell A and the olfactory receptor neuron with the small spike amplitude was designated cell B (Ghaninia et al. Eur J Neurosci 26, 1611-1623 (2007)). Signals were recorded for 10 seconds starting 1 second before stimulation, and the action potentials were counted off-line over a 500-ms period before and after stimulation. The spontaneous firing rates observed in the preceding 500 milliseconds (ms) were subtracted from the total spike rates observed during the 500-ms stimulation, and counts were recorded in units of spikes/second.
# (§2) Eighteen compounds besides pyrethrum from different chemical classes were selected for functional classification of olfactory sensilla with various morphological shapes (Extended Data FIG. 2). Each compound was diluted in dimethyl sulfoxide (DMSO) to a stock solution with a concentration of 100 μg/μl. Subsequently, a series of 10-fold dilutions were made from each of the stock solutions for each compound tested. For each dilution, a 10 μl portion was dispersed onto a filter paper strip (4×10 mm), which was then inserted into a Pasteur pipette to create the stimulus cartridge. A sample containing the solvent alone served as control. The airflow across the antennae was maintained constant at a 20 ml/second throughout the experiment. Purified and humidified air was delivered to the preparation through a glass tube (10-mm inner diameter) perforated by a small hole 10 cm away from the end of the tube, into which the tip of the Pasteur pipette could be inserted. The stimulus was delivered to the sensilla by inserting the tip of the stimulus cartridge into this hole and diverting a portion of the air stream (0.5 l/min) to flow through the stimulus cartridge for 500 ms using a stimulus controller (Syntech, Germany). The distance between the end of the glass tube and the antennae was ≤1 cm. The number of spikes/second was obtained by averaging the results for each sensillum/compound combination.
# (§3) To identify which mosquito olfactory receptor neuron(s) responds to pyrethrum, single sensillum recordings (SSR) were performed of Ae. aegypti antennal olfactory sensilla in response to a panel of odorants (FIG. 2C-2L), most of which are plant-derived mosquito repellents, such as pyrethrum, (±)-citronellal, geranyl acetate and (−)-borneol. Three responsive sst sensilla were identified, sst1-3, and six responsive sbt sensilla, sbt1-6, based on their response profiles to the odorants in the panel (FIG. 2B, 2D-2L).
# Ae. aegypti mosquitoes = experiment: Hand-in-cage spatial repellency assay; format: in vivo, Aedes aegypti; details: for repellency in AaOr31−/− mosquitoes compared to wild-type mosquitoes: ROCK wild-type; for effect of (E)-β-farnesene on repellency of the compound: EBF 4 ppm, P-I 1000 ppm, P-II 1000 ppm, (−)-borneol 100 ppm; for repellency in pyrethrum/pyrethroid resistant KDR:ROCK mosquitoes compared to ROCK: FIG. 4G
# Excerpt: The hand-in-cage assay employed was similar to the hand-in-glove assay described by Boyle et al. (bioRxiv, 060178 (2016)). The setup for the hand-in-cage assay includes a 30 cm×30 cm×30 cm mosquito cage (BioQuip, Rancho Dominguea, Calif.), with a mounted digital camera and a human hand in a modified glove with a screened window. The digital camera (e-con Systems Inc, San Jose, Calif., model: e-CAM51A) for video recording is mounted on the cage top and connected to a laptop computer. A nitrile rubber glove (Ansell Protective Products, Coshoton, Ohio, part number: 37-155) was cut on the back side of the glove to create a window (6 cm×5 cm) (FIG. 1A). A piece of magnetic frame (slightly larger than the dimension of the window) was glued onto the cut window which was used as a base for stacking more magnetic window frames (FIG. 1A; further explained below). One piece of test compound-treated polyester netting (Shason Textile Inc., part number: WS-B532-111, white; slightly larger than the dimension of the window) was placed on this fixed magnetic frame, which was ˜3.0 mm above the glove. The second piece of the netting was untreated and placed ˜6.0 mm above the treated net using a stack of four magnetic frames. The stacked magnetic frames were further secured with a binder clip. The stacking creates sufficient space between the treated net and the untreated net so that mosquitoes that land on the open window were not able to contact treated net, or to contact and pierce skin of a hand in the glove. The hand makes no contact with the treated net.
# The assay was run in a room with humidity between around 50% and temperature between 27° C. to 30° C. Twenty-four hours before an assay, four to nine days-old females (about 40, mated, non-blood fed) were transferred into a mosquito cage. The cage was kept in an incubator where mosquitoes were provided only with water in a cotton ball placed on the top of the cage. Immediately before the assay, one researcher treated pieces of netting with 500 μl test compound dissolved in acetone in a glass Petri dish in an adjacent room. Acetone served a control. After letting acetone evaporate (˜7 min), the researcher assembled and put on a modified glove. In the meantime, a second researcher or a lab assistant transferred the prepared cage from the incubator to a bench in the assay room. Both personnel avoided use of any hand lotions and cosmetic products before an assay and wore white lab coats and gloves during the assay. The hand with the modified glove was introduced into the cage to initiate the assay. Mosquitoes landing on the test window was recorded by the digital camera for five minutes. The number of mosquitoes landing during the second to fifth minutes was counted and recorded. For each cage, solvent (acetone) control was tested first and then followed with a treatment. Data from any cage that gave a low landing number in a control trial were discarded. The time interval of assays between control and treatment was at least 1.5 hours, allowing the mosquitoes to fully recover and residual vapors from experiments to be ventilated out of the room. Percentage repellency was determined for each cage using the following equation:
# Percentage repellency=[1−(cumulative number of mosquitoes landed on the window of treatment/cumulative number of mosquitoes landed on the window of solvent treatment)]×100).
# The spatial repellency of pyrethrum was examined using a hand-in-cage assay (Ogoma et al. PLoS neglected tropical diseases 11, e0005455 (2017)). In this behavioral assay, mosquitoes were attracted to a human hand in a modified glove (FIG. 1A) with a screened window on the back of the glove. The mosquitoes landed on a piece of control mesh secured on the top of the window. Between the control mesh and the hand is another mesh treated with a test compound, with which mosquitoes cannot make direct contact (FIG. 1A).
# AgOr31 = experiment: SSR of Drosophila ab3A empty neurons expressing AgOr31; format: cell-based, Anopheles gambiae; details: 10^−2 dilution
# Excerpt: The method of Carey et al. (Nature 464, 66-71 (2010)) was used for heterologous expression of AgORs in the ab3 empty neurons. The Gal4 line (w; Cyo/Δhalo; Or22a-Gal4) was kindly provided by John Carlson (Yale Univ.), and 50 UAS-AgOr lines were obtained from the Bloomington Drosophila stock center.
# Having identified sbt-1 and sst-1 as primary olfactory receptor neurons that are responsive to pyrethrum, experiments were designed to identify the specific odorant receptors (Ors) that are involved in these responses. An indexed library of An. gambiae Ors (AgOrs) (Carey et al., Nature 464, 66-71 (2010)) was used. Each of the 50 AgOrs was expressed in the “ab3 empty neuron” system of Drosophila melanogaster, in which the endogenous odorant receptor gene, Or22a, in the ab3 sensillum was deleted (FIG. 2N-2O, FIG. 3A).
# Single sensillum recordings (SSR) were then examined from the resulting chimera ab3 sensillum that expressed the individual AgOrs in the D. melanogaster antenna when these flies were exposed to the same panel of odorants used in the analysis of Ae. aegypti sensilla. […] The odorant response profile of the sbt-1A neuron matches remarkably well with that of AgOr31 (FIGS. 2C, 2O).
# [2] = tested on: sst-1 sensilla (sst-1A and sst-1B neurons); experiment: Single sensillum recording (SSR) of antennal sst-1 sensilla; format: cell-based, Aedes aegypti; details: for response of sst-1A neuron: wild-type ROCK, pyrethrum at 10^−2; for response of sst-1A neurons: ROCK, 10^−1 dilution, FIG. 4A
# Protocol: as §1, §2, §3
# [3] = 10^−3 dilution, Orlando (wild-type), FIG. 4B
smiles,measurement,setting,value
c1ccc2[nH]ccc2c1 [indole],response of sbt-1B neurons in AaOr31−/− mosquitoes,[1],remained intact
same,response of sbt-1B neuron,[1],highly sensitive
C=CC(=C)CC/C=C(\C)CCC=C(C)C [(E)-β-farnesene],repellency alone,"Ae. aegypti mosquitoes; 4 ppm and 10 ppm, ROCK or AaOr31−/− mosquitoes, FIG. 4H",did not elicit repellency
same,repellency in AaOr31−/− mosquitoes compared to wild-type mosquitoes,"Ae. aegypti mosquitoes; 10^−2 dilution, FIG. 3B",significantly reduced
same,spatial repellency,"Ae. aegypti mosquitoes; 10^−2 dilution, ROCK, FIG. 3B",elicited spatial repellency
same,repellency alone,"Ae. aegypti mosquitoes; 1000 ppm or lower concentrations, FIG. 4H",no repellency
same,repellency enhancement by (E)-β-farnesene in AaOr31−/− mosquitoes,"Ae. aegypti mosquitoes; EBF 4 ppm with P-II 1000 ppm, FIG. 4D",abolished
same,repellency alone,Ae. aegypti mosquitoes; at 4 ppm or below,did not exhibit repellency
same,response of sbt-1A neurons in AaOr31−/− mosquitoes,[1],completely abolished
same,response of sbt-1A neuron,[1],activated
same,activation of AgOr31,AgOr31,activated
Cc1ccccc1 [toluene],response of sbt-1B neurons in AaOr31−/− mosquitoes,[1],remained intact
same,response of sbt-1B neuron,[1],highly sensitive
CCCCC/C=C\C/C=C\CCCCCCCC(=O)OCC [ethyl linoleate],response of sbt-1A neuron,[1],None
same,activation of AgOr31,AgOr31,None
CCCCCCCCCCCCCCCC(=O)OCC [ethyl palmitate],response of sbt-1A neuron,[1],None
same,activation of AgOr31,AgOr31,None
CC12CCC(CC1=O)C2(C)C (centres unmarked) [camphor],response of sst-1A neuron,[2],activated
CC(C)=CCCC(C)CC=O (racemic) [(±)-citronellal],repellency in AaOr31−/− mosquitoes compared to wild-type mosquitoes,"Ae. aegypti mosquitoes; 10^−2 dilution, FIG. 3B",significantly reduced
same,response of sbt-1A neurons in AaOr31−/− mosquitoes,[1],completely abolished
same,response of sbt-1A neuron,[1],strong excitatory responses
same,response of sst-1A neuron,[2],activated
C=C/C=C\CC1=C(C)[C@@H](OC(=O)[C@@H]2[C@@H](/C=C(\C)C(=O)OC)C2(C)C)CC1=O [pyrethrin II],repellency in orco−/− mosquitoes compared to Orlando,"Ae. aegypti mosquitoes; 10^−3 dilution, FIG. 4B",significantly reduced
same,spatial repellency,Ae. aegypti mosquitoes; [3],elicited spatial repellency
same,effect of (E)-β-farnesene on repellency of the compound,"Ae. aegypti mosquitoes; ROCK, FIG. 4D",synergized
same,repellency in pyrethrum/pyrethroid resistant KDR:ROCK mosquitoes compared to ROCK,Ae. aegypti mosquitoes,reduced
same,response of sst-1A neurons,[2],activated
CC12CCC(CC1)C(C)(C)O2 [eucalyptol],response of sst-1A neuron,[2],activated
C=C/C=C\CC1=C(C)[C@@H](OC(=O)[C@@H]2[C@@H](C=C(C)C)C2(C)C)CC1=O [pyrethrin I],repellency alone,"Ae. aegypti mosquitoes; 1 ppm, ROCK, FIG. 4E",did not elicit repellency
same,repellency in orco−/− mosquitoes compared to Orlando,"Ae. aegypti mosquitoes; 10^−3 dilution, FIG. 4B",significantly reduced
same,spatial repellency,Ae. aegypti mosquitoes; [3],elicited spatial repellency
same,effect of (E)-β-farnesene on repellency of the compound,"Ae. aegypti mosquitoes; ROCK, FIG. 4D",synergized
same,repellency in pyrethrum/pyrethroid resistant KDR:ROCK mosquitoes compared to ROCK,Ae. aegypti mosquitoes,reduced
same,synergism with (E)-β-farnesene in repellency,"Ae. aegypti mosquitoes; pyrethrin I 1 ppm, EBF 10 ppm, ROCK, FIG. 4E",still evident
same,response of sst-1A neurons,[2],activated
CC(=O)OC/C=C(\C)CCC=C(C)C [geranyl acetate],repellency in AaOr31−/− mosquitoes compared to wild-type mosquitoes,"Ae. aegypti mosquitoes; 10^−2 dilution, FIG. 3B",significantly reduced
same,response of sbt-1A neurons in AaOr31−/− mosquitoes,[1],completely abolished
same,response of sbt-1A neuron,[1],strong excitatory responses
